In patent US9464063B2, “Benzo [B] [1,4] oxazin derivatives as calcium sensing receptor modulators” (LUPIN ATLANTIS HOLDINGS SA, priority 2011, dated 2016):
Counter-ions that a name gives are not always drawn.

molecular target: T1, Calcium sensing receptor (hCaSR) (Homo sapiens, UniProt P41180); test: In-vitro assay of calcimimetics through modulation of calcium sensing receptor: increase in intracellular calcium [Ca2+]i, FLIPR; format: cell-based; conditions: stably transfected HEK293 cells expressing hCaSR; Fluo4NW dye; 0.3 mM CaCl2; 8-point assay; read-out: EC50 Range
T1 construct: expressed in transfected cells
T1 sequence (P41180 20-1078): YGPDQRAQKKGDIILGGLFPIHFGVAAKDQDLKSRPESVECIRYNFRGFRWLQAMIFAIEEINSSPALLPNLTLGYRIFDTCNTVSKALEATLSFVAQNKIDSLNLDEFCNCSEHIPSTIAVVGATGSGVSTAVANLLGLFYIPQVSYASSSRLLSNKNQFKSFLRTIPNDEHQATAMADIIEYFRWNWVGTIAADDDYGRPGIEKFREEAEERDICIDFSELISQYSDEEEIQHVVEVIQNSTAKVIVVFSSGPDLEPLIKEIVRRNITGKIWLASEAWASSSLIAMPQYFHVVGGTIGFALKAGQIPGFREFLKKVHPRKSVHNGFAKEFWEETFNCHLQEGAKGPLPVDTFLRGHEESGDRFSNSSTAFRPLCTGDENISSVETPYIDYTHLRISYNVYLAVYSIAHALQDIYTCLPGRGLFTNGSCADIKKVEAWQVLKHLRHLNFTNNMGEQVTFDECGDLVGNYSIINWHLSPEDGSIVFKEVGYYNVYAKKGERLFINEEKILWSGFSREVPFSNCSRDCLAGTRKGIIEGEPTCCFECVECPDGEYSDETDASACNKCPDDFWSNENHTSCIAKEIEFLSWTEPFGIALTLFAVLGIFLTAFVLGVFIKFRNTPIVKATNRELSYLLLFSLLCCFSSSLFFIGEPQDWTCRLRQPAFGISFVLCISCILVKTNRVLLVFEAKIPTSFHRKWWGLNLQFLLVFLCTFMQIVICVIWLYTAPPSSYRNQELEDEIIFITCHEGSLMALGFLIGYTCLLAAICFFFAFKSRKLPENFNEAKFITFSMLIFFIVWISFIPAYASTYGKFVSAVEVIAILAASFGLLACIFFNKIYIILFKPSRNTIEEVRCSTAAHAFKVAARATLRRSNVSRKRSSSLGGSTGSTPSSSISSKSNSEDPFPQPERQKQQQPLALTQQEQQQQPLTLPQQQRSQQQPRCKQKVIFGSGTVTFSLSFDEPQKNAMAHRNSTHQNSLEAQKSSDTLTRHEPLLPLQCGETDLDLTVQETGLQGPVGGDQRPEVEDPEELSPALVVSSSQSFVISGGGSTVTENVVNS
Method: In-Vitro Assay Method of Calcimemtics Through Modulation of Calcium Sensing Receptor (CaSR):
The ability of the compounds to modulate Calcium sensing receptor is determined by measuring an increase in intracellular calcium [Ca^2+]i. Stably transfected HEK293 cells expressing hCaSR_pTriEx-3 hygro vector are developed. Cells are grown overnight on a 96-well plate to 80% confluency in Ham's F12 containing 20% FBS at 37° C., 5% CO2. Subsequently, cells are washed extensively with 20 mM HEPES buffer containing 126 mM NaCl, 1 mM MgCl2 and 4 mM KCl to remove serum components that might interfere with the assay. Cells are loaded with calcium sensing Fluo4NW dye in HEPES base buffer containing 0.1% BSA and 1 mg/ml glucose for 30 minutes to measure changes in intracellular calcium. The activities of the compounds are measured in FLIPR using 0.3 mM CaCl2 in 20 mM HEPES base buffer. The effectiveness of the compound to modulate receptor activity is determined by calculating the EC50 responses for that compound in an 8-point assay and plotted using GraphPad Prism 5.

COC(=O)c1ccc(N2CC(CN[C@H](C)c3cccc4ccccc34)Oc3ccccc32)cc1 (single isomer, unassigned) [Example 2a, hydrochloride] and C[C@@H](NCC1CN(c2ccc(C(=O)O)cc2)c2ccccc2O1)c1cccc2ccccc12 (stereo partly drawn) [Example 6, 4-(2-((((R)-1-(Naphthalen-1-yl)ethyl)amino)methyl)-2H-benzo[b][1,4]oxazin-4(3H)-yl)benzoic acid hydrochloride] fall in the same range of EC50: 50 to 200 nM for the first, 50 to 200 nM for the second.

COC(=O)c1ccc(N2CC(CN[C@H](C)c3cccc4ccccc34)Oc3ccccc32)cc1 (single isomer, unassigned) [Example 2b, hydrochloride] and COC(=O)c1cc(N2CC(CN[C@H](C)c3cccc4ccccc34)Oc3ccccc32)ccc1C (single isomer, unassigned) [Example 31a] fall in the same range of EC50: 20 to 50 nM for the first, 20 to 50 nM for the second.

First: CCOC(=O)c1c(C)ccc(N2CC(CN[C@H](C)c3cccc4ccccc34)Oc3ccccc32)c1C (single isomer, unassigned) [Example 24b]
Second: Cc1ccc(N2CC(CN[C@H](C)c3cccc4ccccc34)Oc3ccccc32)c(C)c1C(=O)O (single isomer, unassigned) [Example 70b, hydrochloride]
The EC50 of the first is higher: 20 to 50 nM for the first, under 20 nM for the second. The second is the more potent here.

COC(=O)c1cc(N2CC(CN[C@H](C)c3cccc4ccccc34)Oc3ccccc32)ccc1C (single isomer, unassigned) [Example 31b] and Cc1ccc(N2CC(CN[C@H](C)c3cccc4ccccc34)Oc3ccccc32)cc1C(=O)O (single isomer, unassigned) [Example 71b, hydrochloride] cannot be ordered by EC50: under 20 nM for the first, under 20 nM for the second.

COc1ccc(C(=O)O)cc1N1CC(CN[C@H](C)c2cccc3ccccc23)Oc2ccccc21 (single isomer, unassigned) [Example 55a, hydrochloride] and COc1ccc(N2CC(CN[C@H](C)c3cccc4ccccc34)Oc3ccccc32)cc1C(=O)O (single isomer, unassigned) [Example 67b, hydrochloride] fall in the same range of EC50: 50 to 200 nM for the first, 50 to 200 nM for the second.

First: Cc1c(C(=O)O)cccc1N1CC(CN[C@H](C)c2cccc3ccccc23)Oc2ccccc21 (single isomer, unassigned) [Example 58a, hydrochloride]
Second: Cc1cc(N2CC(CN[C@H](C)c3cccc4ccccc34)Oc3ccccc32)ccc1C(=O)O (single isomer, unassigned) [Example 73b, hydrochloride]
The EC50 of the first is higher: 20 to 50 nM for the first, under 20 nM for the second.

Compared with C[C@@H](NCC1CN(c2ccc(C(F)(F)F)c(C(=O)O)c2)c2ccccc2O1)c1cccc2ccccc12 (single isomer, unassigned) [Example 60a, hydrochloride], C[C@@H](NCC1CN(c2ccc(C(=O)O)c(C(F)(F)F)c2)c2ccccc2O1)c1cccc2ccccc12 (single isomer, unassigned) [Example 64b, hydrochloride] is lower in EC50: 20 to 50 nM for the first, under 20 nM for the second. The second is the more potent here.

Compared with Cc1cc(C(=O)O)cc(N2CC(CN[C@H](C)c3cccc4ccccc34)Oc3ccccc32)c1 (single isomer, unassigned) [Example 62a, hydrochloride], C[C@@H](NCC1CN(c2cccc(C(=O)O)c2)c2ccccc2O1)c1cccc2ccccc12 (stereo partly drawn) [Example 41, 3-(2-((((R)-1-(Naphthalen-1-yl)ethyl)amino)methyl)-2H-benzo[b][1,4]oxazin-4(3H)-yl)benzoic acid hydrochloride] is lower in EC50: 50 to 200 nM for the first, 20 to 50 nM for the second. The second is the more potent here.

First: C[C@@H](NCC1CN(c2ccc(O)c(C(=O)O)c2)c2ccccc2O1)c1cccc2ccccc12 (single isomer, unassigned) [Example 66a, hydrochloride]
Second: C[C@@H](NCC1CN(c2ccc(Cl)c(C(=O)O)c2)c2ccccc2O1)c1cccc2ccccc12 (single isomer, unassigned) [Example 75b, hydrochloride]
The EC50 of the first is lower: 20 to 50 nM for the first, 50 to 200 nM for the second.

C[C@@H](NCC1CN(c2ccc(O)c(C(=O)O)c2)c2ccccc2O1)c1cccc2ccccc12 (single isomer, unassigned) [Example 66b, hydrochloride] and Cc1ccc(N2CC(CCN[C@H](C)c3cccc4ccccc34)Oc3ccccc32)cc1C(=O)O (single isomer, unassigned) [Example 133b, hydrochloride] cannot be ordered by EC50: under 20 nM for the first, under 20 nM for the second.

C[C@@H](NCC1CN(c2cccc(CCC(=O)O)c2)c2ccccc2O1)c1cccc2ccccc12 (single isomer, unassigned) [Example 68b, hydrochloride] and C[C@@H](NCC1CN(c2ccc(CCC(=O)O)cc2)c2ccccc2O1)c1cccc2ccccc12 (stereo partly drawn) [Example 48, 3-(4-(2-((((R)-1-(naphthalen-1-yl)ethyl)amino)methyl)-2H-benzo [b][1,4]oxazin-4(3H)-yl)phenyl)propanoic acid] fall in the same range of EC50: 50 to 200 nM for the first, 50 to 200 nM for the second.

First: Cc1ccc(N2CC(CN[C@H](C)c3cccc4ccccc34)Oc3ccccc32)cc1OCC(=O)O (single isomer, unassigned) [Example 76a, hydrochloride]
Second: Cc1ccc(N2CC(CN[C@H](C)c3cccc4ccccc34)Oc3ccccc32)cc1OC(C)(C)C(=O)O (single isomer, unassigned) [Example 77a, hydrochloride]
The EC50 of the first is lower: under 20 nM for the first, 50 to 200 nM for the second.

First: Cc1ccc(N2CC(CN[C@H](C)c3cccc4ccccc34)Oc3ccccc32)cc1C(=O)NCC(=O)O (single isomer, unassigned) [Example 79b, hydrochloride]
Second: Cc1ccc(N2C(=O)C(CN[C@H](C)c3cccc4ccccc34)Oc3ccccc32)cc1C(=O)O (single isomer, unassigned) [Example 87b, hydrochloride]
The EC50 of the first is lower: under 20 nM for the first, 20 to 50 nM for the second.

First: Cc1ccc(N2CC(C)(CN[C@H](C)c3cccc4ccccc34)Oc3ccccc32)cc1C(=O)O (single isomer, unassigned) [Example 86a, hydrochloride]
Second: Cc1ccc(N2CC(CCN[C@H](C)c3cccc4ccccc34)Oc3c(F)cccc32)cc1C(=O)O (single isomer, unassigned) [Example 159a, hydrochloride]
The EC50 of the first is higher: 50 to 200 nM for the first, 20 to 50 nM for the second.

C[C@@H](NCCC1CN(c2cccc(C(=O)O)c2)c2cccc(F)c2O1)c1cccc2ccccc12 (single isomer, unassigned) [Example 160a, hydrochloride] and C[C@@H](NCCC1CN(c2cccc(C(=O)O)c2)c2cc(F)ccc2O1)c1cccc2ccccc12 (single isomer, unassigned) [Example 167a] cannot be ordered by EC50: under 20 nM for the first, under 20 nM for the second.

C[C@@H](NCCC1CN(c2ccc(OCC(=O)O)cc2)c2ccc(F)cc2O1)c1cccc2ccccc12 (single isomer, unassigned) [Example 161a, hydrochloride] and C[C@@H](NCCC1CN(c2ccc(OCC(=O)O)cc2)c2cc(F)ccc2O1)c1cccc2ccccc12 (single isomer, unassigned) [Example 168a] cannot be ordered by EC50: under 20 nM for the first, under 20 nM for the second.

C[C@@H](NCCC1CN(c2ccc(OCC(=O)O)cc2)c2cccc(F)c2O1)c1cccc2ccccc12 (single isomer, unassigned) [Example 164a, hydrochloride] and C[C@@H](NCCC1CN(c2ccc(OCC(=O)O)cc2)c2c(F)cccc2O1)c1cccc2ccccc12 (single isomer, unassigned) [Example 172a, hydrochloride] cannot be ordered by EC50: under 20 nM for the first, under 20 nM for the second.

First: Cc1ccc(N2CC(CCN[C@H](C)c3cccc4ccccc34)Oc3ccc(F)cc32)cc1C(=O)O (single isomer, unassigned) [Example 166a, hydrochloride]
Second: C[C@@H](NCCC1CN(c2cccc(C(=O)O)c2)c2cc(F)ccc2O1)c1cccc2ccccc12 (single isomer, unassigned) [Example 167b]
The EC50 of the first is lower: under 20 nM for the first, 20 to 50 nM for the second. The first is the more potent here.

C[C@@H](NCCC1CN(c2cccc(OCC(=O)O)c2)c2cc(F)ccc2O1)c1cccc2ccccc12 (single isomer, unassigned) [Example 169a, hydrochloride] and C[C@@H](NCCC1CN(c2cccc(OCC(=O)O)c2)c2c(F)cccc2O1)c1cccc2ccccc12 (single isomer, unassigned) [Example 171a, hydrochloride] cannot be ordered by EC50: under 20 nM for the first, under 20 nM for the second.
